# Marks after values point to notes of the source that are not given here.
# Test system: not listed separately
# Assay: Scavenging activity of nitric oxide (nitrite production induced by SNP, Griess reaction)
# Settings: 1 μg/mL
# Procedure: (§1) For the in vitro antioxidant tests the samples were emulsified in 0.05% Tween 80 dissolved in saline 0.9% (used as the vehicle) and tested at concentrations of 1, 5, 10, 25 and 100 µg/mL. The samples for the cytotoxicity tests were diluted in pure and sterile DMSO and tested at concentrations of 25 µg/mL.
# Nitric oxide was generated from spontaneous decomposition of sodium nitroprusside in 20 mM phosphate buffer (pH 7.4). Once generated, NO interacts with oxygen to produce nitrite ions, which are measured by the Griess reaction. The reaction mixture (1 mL) containing 10 mM sodium nitroprusside (SNP) in phosphate buffer and the riparins at various concentrations of 1, 5, 10, 25 and 100 µg/mL were incubated at 37 °C for 1 h. A 0.5 mL aliquot was taken and homogenized with 0.5 mL Griess reagent. The absorbance of chromophore was measured at 540 nm. Percent inhibition of generated nitric oxide was measured by comparing the absorbance values of negative controls (only 10 mM sodium nitroprusside and vehicle) to assay preparations. Results were expressed as percentage of nitrite formed by SNP alone.
row,SMILES,Nitrite Production (% induced by SNP)
1,"COc1ccc(CCNC(=O)c2ccccc2)cc1OC [Rip-B, N-[2-(3,4-Dimethoxyphenyl)ethyl]benzamide]",75.8 ± 1.02 ^a %

# Same assay, conditions: 5 μg/mL
row,SMILES,Nitrite Production (% induced by SNP)
1,"COc1ccc(CCNC(=O)c2ccccc2)cc1OC [Rip-B, N-[2-(3,4-Dimethoxyphenyl)ethyl]benzamide]",34.1 ± 1.85 ^a %

# Same assay, conditions: 10 μg/mL
row,SMILES,Nitrite Production (% induced by SNP)
1,"COc1ccc(CCNC(=O)c2ccccc2)cc1OC [Rip-B, N-[2-(3,4-Dimethoxyphenyl)ethyl]benzamide]",29.1 ± 2.00 ^a %

# Same assay, conditions: 25 μg/mL
row,SMILES,Nitrite Production (% induced by SNP)
1,"COc1ccc(CCNC(=O)c2ccccc2)cc1OC [Rip-B, N-[2-(3,4-Dimethoxyphenyl)ethyl]benzamide]",23.1 ± 0.97 ^a %

# Same assay, conditions: 100 μg/mL
row,SMILES,Nitrite Production (% induced by SNP)
1,"COc1ccc(CCNC(=O)c2ccccc2)cc1OC [Rip-B, N-[2-(3,4-Dimethoxyphenyl)ethyl]benzamide]",20.6 ± 0.98 ^a %

# Same assay, conditions: nitrite formation
row,SMILES,IC50 Nitrite [µg/mL]
1,"COc1ccc(CCNC(=O)c2ccccc2)cc1OC [Rip-B, N-[2-(3,4-Dimethoxyphenyl)ethyl]benzamide]",0.7948

# Test system: not listed separately
# Assay: Hydroxyl radical scavenging activity (2-deoxyribose degradation, Fenton reaction)
# Settings: 1 μg/mL
# Procedure: as §1
# The formation of OH radicals from Fenton reagents was quantified using the condensation product of the 2-deoxyribose oxidative degradation product, malonaldehyde, with 2-thiobarbituric acid (TBA). Briefly, typical reactions were started by the addition of Fe^2+ (FeSO4 6 mM final concentration) to solutions containing 5 mM 2-deoxyribose, 100 mM H2O2 and 20 mM phosphate buffer (pH 7.2). In order to determine the antioxidant activity of the riparins against the hydroxyl radical, individual tests were performed on each one of the six substances, in which different concentrations of the riparins were added to the system before Fe^2+ addition (Rip-A; Rip-B; Rip-C; Rip-D; Rip-E and Rip-F). Reactions were carried out for 15 min at room temperature and were quenched by the addition of phosphoric acid 4% (v/v), followed by TBA 1% (thiobarbituric acid, v/v in 50 μL NaOH). The solutions were boiled for 15 min to 95 °C and then cooled at room temperature. The absorbance was measured at 532 nm and the results were expressed as MDA equivalents formed by Fe^2+ and H2O2 [25].
row,SMILES,2-Deoxyribose degradation (%)
1,"COc1ccc(CCNC(=O)c2ccccc2)cc1OC [Rip-B, N-[2-(3,4-Dimethoxyphenyl)ethyl]benzamide]",98.4 ± 0.39 ^a %

# Same assay, conditions: 5 μg/mL
row,SMILES,2-Deoxyribose degradation (%)
1,"COc1ccc(CCNC(=O)c2ccccc2)cc1OC [Rip-B, N-[2-(3,4-Dimethoxyphenyl)ethyl]benzamide]",79.8 ± 1.34 ^a %

# Same assay, conditions: 10 μg/mL
row,SMILES,2-Deoxyribose degradation (%)
1,"COc1ccc(CCNC(=O)c2ccccc2)cc1OC [Rip-B, N-[2-(3,4-Dimethoxyphenyl)ethyl]benzamide]",58.5 ± 0.85 ^a %

# Same assay, conditions: 25 μg/mL
row,SMILES,2-Deoxyribose degradation (%)
1,"COc1ccc(CCNC(=O)c2ccccc2)cc1OC [Rip-B, N-[2-(3,4-Dimethoxyphenyl)ethyl]benzamide]",47.7 ± 0.44 ^a %

# Same assay, conditions: 100 μg/mL
row,SMILES,2-Deoxyribose degradation (%)
1,"COc1ccc(CCNC(=O)c2ccccc2)cc1OC [Rip-B, N-[2-(3,4-Dimethoxyphenyl)ethyl]benzamide]",47.2 ± 0.43 ^a %

# Same assay, conditions: hydroxyl radical content
row,SMILES,IC50 OH radical [µg/mL]
1,"COc1ccc(CCNC(=O)c2ccccc2)cc1OC [Rip-B, N-[2-(3,4-Dimethoxyphenyl)ethyl]benzamide]",1.639

# Test system: not listed separately
# Assay: Antioxidant potential against the formation of TBARS (AAPH-induced lipid peroxidation of egg yolk homogenate)
# Settings: 1 μg/mL
# Procedure: as §1
# The TBARS assay was employed to quantify lipid peroxidation and an adapted TBARS method was used to measure the antioxidant capacity of the riparins (Rip-A, -B, -C, -D, -E and -F) using egg yolk homogenate as lipid rich substrate. Egg yolk was homogenized (1% w/v) in 20 mM phosphate buffer (pH 7.4), 1 mL of homogenate was sonicated and then homogenized with 0.1 mL of the samples at concentrations of 1, 5, 10, 25 and 100 µg/mL. Lipid peroxidation was induced by the addition of 0.1 mL of 2,2'-azobis(2-methylpropionamidine) dihydrochloride solution (AAPH; 0.12 M). Control was evaluated with only the vehicle. Reactions were carried out for 15 minutes at 37 °C. After cooling, samples (0.5 mL) were centrifuged with 0.5 mL of trichloroacetic acid (15%) at 1,200 ×g for 10 min. An aliquot of 0.5 mL from supernatant was mixed with 0.5 mL TBA (0.67%) and heated at 95 °C for 30 min. After cooling, sample absorbance was measured using a spectrophotometer at 532 nm. The results were expressed as percentage of TBARS formed by AAPH alone (induced control).
row,SMILES,TBARS levels (% AAPH)
1,"COc1ccc(CCNC(=O)c2ccccc2)cc1OC [Rip-B, N-[2-(3,4-Dimethoxyphenyl)ethyl]benzamide]",44.5 ± 1.31 ^a %

# Same assay, conditions: 5 μg/mL
row,SMILES,TBARS levels (% AAPH)
1,"COc1ccc(CCNC(=O)c2ccccc2)cc1OC [Rip-B, N-[2-(3,4-Dimethoxyphenyl)ethyl]benzamide]",40.4 ± 0.85 ^a %

# Same assay, conditions: 10 μg/mL
row,SMILES,TBARS levels (% AAPH)
1,"COc1ccc(CCNC(=O)c2ccccc2)cc1OC [Rip-B, N-[2-(3,4-Dimethoxyphenyl)ethyl]benzamide]",38.3 ± 1.05 ^a %

# Same assay, conditions: 25 μg/mL
row,SMILES,TBARS levels (% AAPH)
1,"COc1ccc(CCNC(=O)c2ccccc2)cc1OC [Rip-B, N-[2-(3,4-Dimethoxyphenyl)ethyl]benzamide]",36.5 ± 1.21 ^a %

# Same assay, conditions: 100 μg/mL
row,SMILES,TBARS levels (% AAPH)
1,"COc1ccc(CCNC(=O)c2ccccc2)cc1OC [Rip-B, N-[2-(3,4-Dimethoxyphenyl)ethyl]benzamide]",29.7 ± 1.31 ^a %

# Same assay, conditions: TBARS production
row,SMILES,IC50 TBARS [µg/mL]
1,"COc1ccc(CCNC(=O)c2ccccc2)cc1OC [Rip-B, N-[2-(3,4-Dimethoxyphenyl)ethyl]benzamide]",1.032

# Test system: HEP-2 (laryngeal carcinoma)
# Assay: Cytotoxicity against tumor cell lines (MTT)
# Format: cell-based
# Settings: Homo sapiens, 72 h, 95% confidence interval in brackets, read-out: IC50 values and confidence intervals, HEP-2
# Procedure: (§2) Cells were maintained at 37 °C with 5% CO2 in RPMI 1640 (Himedia^TM, Mumbai, India) or DMEM medium (Gibco^TM, Grand Island, NY, USA) supplemented with 2 mM glutamine, 100 U/mL penicillin, 100 μg/mL streptomycin. The antiproliferative activities of riparins were evaluated in the following human cancer cells lineage: HL-60 (pro-myelocytic leukemia), NCIH-292 (lung carcinoma), and HEP-2 (laryngeal carcinoma) obtained from the Rio de Janeiro Cell Bank (RJ-Brazil). For all experiments, 100 µL of tumor cells were plated in 96-well plates (6 × 10^4 cells/cm^2 for adherent cells or 9 × 10^4 cells/cm^2 for leukemia). Tested compounds (0.1–25 μg/mL) dissolved in 1% DMSO (100 µL) were added to each well and incubated for 72 h. Control groups received the same amount of DMSO. After 69 h of treatment, 25 μL of MTT (5 mg/mL) were added. Three hours later, the MTT formazan product was dissolved in 100 μL of DMSO, and absorbance was measured at 595 nm using a multiplate reader (Thermo Plate®, TP Reader, São Paulo, SP, Brasil).
# (§3) The obtained data were evaluated by one-way analysis of variance (ANOVA) followed by a Student Newman Keuls post hoc test. The data concerning release percentage of cytoplasmatic enzyme lactate dehydrogenase (LDH) were reported by mean ± standard deviation and evaluated by one-way analysis of variance (ANOVA) followed by a Tukey post hoc test. In all cases differences were considered significant if p < 0.05, the means and respective standard errors were analyzed in the Graph Pad Prism version 5.0 for Windows software (GraphPad Software Incorporated, San Diego, CA, USA).
row,SMILES,IC50 [µg/mL]
1,"COc1ccc(CCNC(=O)c2ccccc2)cc1OC [Rip-B, N-[2-(3,4-Dimethoxyphenyl)ethyl]benzamide]",> 25

# Test system: HL-60 (pro-myelocytic leukemia)
# Assay: Cytotoxicity against tumor cell lines (MTT)
# Format: cell-based
# Settings: Homo sapiens, 72 h, 95% confidence interval in brackets, read-out: IC50 values and confidence intervals, HL-60
# Procedure: as §2, §3
row,SMILES,IC50 [µg/mL]
1,"COc1ccc(CCNC(=O)c2ccccc2)cc1OC [Rip-B, N-[2-(3,4-Dimethoxyphenyl)ethyl]benzamide]",> 25

# Test system: NCIH-292 (lung carcinoma)
# Assay: Cytotoxicity against tumor cell lines (MTT)
# Format: cell-based
# Settings: Homo sapiens, NCI-H292, 72 h, 95% confidence interval in brackets, read-out: IC50 values and confidence intervals, NCIH-292
# Procedure: as §2, §3
row,SMILES,IC50 [µg/mL]
1,"COc1ccc(CCNC(=O)c2ccccc2)cc1OC [Rip-B, N-[2-(3,4-Dimethoxyphenyl)ethyl]benzamide]",> 25

# Test system: murine peritoneal macrophages RAW 264.7
# Assay: Cytotoxicity assay on RAW 264.7 (LDH release)
# Format: cell-based
# Settings: 25 µg/mL, RAW 264.7
# Procedure: Murine peritoneal macrophages of the cell line RAW 264.7 were obtained from the American Type Culture Collection (ATCC, Rockville, MD, USA), and cultured at 37 °C with CO2 at 5% in DMEM-F12 supplemented with 10% fetal bovine serum (FBS; Hyclone^TM, Logan, UT, USA) and gentamicin (50 μg/mL). RAW 264.7 cells (5 × 10^5 cells/mL) were cultured and incubated for 24 h with the riparins A, B, C, D, E and F at the final concentration of 25 µg/mL […]. The cytotoxicity assay was performed by LDH assay. The release of LDH (cytoplasmic lactate dehydrogenase enzyme) was determined using 50 μL of culture supernatant with 100 μL of LDH substrate plus and 5 μL ferric alum (5 mg/mL), at 37 °C for 3 min. Then, 100 μL of the NAD solution and phenazine methosulphate were added to the mixture, maintaining the temperature at 37 °C for 5 min (Labrax Commercial Kit, Clontech, Palo Alto, CA, USA). LDH is an oxidoreductase which catalyzes the interconversion of lactate and pyruvate and, for being a stable cytosolic enzyme, after damage to cell membrane it is released in the cellular environment and because of this LDH is an indirect indicator of cytotoxicity. LDH concentration was determined by colorimetry at 492 nm. The specific release of LDH was calculated as percentage of the controls (not treated cells as negative control and cells treated with 1%Triton X-100 as positive control).
# as §3
row,SMILES,LDH % Release [%]
1,"COc1ccc(CCNC(=O)c2ccccc2)cc1OC [Rip-B, N-[2-(3,4-Dimethoxyphenyl)ethyl]benzamide]",17.31

# Test system: not given
# Assay: not given
# Settings: not given
row,SMILES,melting point [°C]
1,"COc1ccc(CCNC(=O)c2ccccc2)cc1OC [Rip-B, N-[2-(3,4-Dimethoxyphenyl)ethyl]benzamide]",90

# Source: PMC6271893, “In Vitro Antioxidant and Cytotoxic Activity of Some Synthetic Riparin-Derived Compounds” (Molecules, 2014)
